What was measured:
[1] = tested on: Arabidopsis thaliana Columbia (Col0) seedlings; assay: Primary root elongation of etiolated seedlings on compound medium; assay type: in vivo; details: 10 μM
[2] = tested on: Arabidopsis thaliana Columbia (Col0) seedlings; assay: Lateral root initiation (lateral roots + lateral root primordia, number and density); assay type: in vivo; details: 10 μM
[3] = tested on: Arabidopsis thaliana seeds; assay: Arabidopsis thaliana seed germination assay; assay type: in vivo; details: 10 μM, compared with control not-treated seeds
[4] = tested on: Nicotiana benthamiana leaves; assay: Leaf dehydration assay (weight loss of pre-treated detached leaves in dry air flow); assay type: in vivo; details: pre-treatment: ABA 10 and 100 μM, analogues 10 μM; 6 h dry air flow
tobacco epidermal strips = assay: Stomatal closure assay on epidermal strips; assay type: cell-based, Nicotiana tabacum; details: 10 μM
[5] = tested on: etiolated Arabidopsis thaliana seedlings; details: adventitious root; 10 μM, compared with control not-treated seedlings
[6] = tested on: Arabidopsis thaliana seedlings; details: in vivo

SMILES: O=P(O)(NCc1ccccn1)c1ccc(Br)c2ccccc12 [Analogue E10, Hydrogen N-(pyridin-2-ylmethyl)-P-(4-bromonapht-1-yl)phosphonamidate]
- effect on primary root growth [1]: modest inhibitors of primary root elongation
- PR ([1]; primary root, compared with control not-treated seedlings): +
- effect on LR+ LRP density (per cm primary root) ([2]; 13 d old etiolated seedlings): reduced the numbers of LR+ LRP similarly to ABA
- effect on number of LR+ LRP (lateral root initiation) ([2]; 13 d old etiolated seedlings): modest to weak inhibitors of lateral root formation
- LR ([2]; lateral root, compared with control not-treated seedlings): +
- Seed germination [3]: 0
- effect on leaf weight loss / transpiration [4]: reduction of transpiration
- effect on stomatal aperture (tobacco epidermal strips): intermediate stomatal closure
- Stomata (tobacco epidermal strips; compared with control not-treated epidermal strips): +
- AR [5]: −
- Shoot [6]: 0

Source: patent US9957288B2, “Pyrabactin analogues to modulate plant development” (Universiteit Gent, priority 2014, dated 2018)
